Key:
[1] = basic moiety of the compound (trialkylhydrazine / O-alkylaminooxy); cited from earlier work
[2] = HPLC kinetics assay: condensation of model amines with benzyloxyacetaldehyde; conditions: 50 μM amine and aldehyde, room temperature, 2 h, above pH 6
Method: Experimental Protocol for HPLC Kinetics Assay: Reaction mixtures contained amine 4, 6, 7, or 8 (50 μM), benzyloxyacetaldehyde (50 μM), bromocresol green (10 μM), and buffer (10 mM) in a 120 μL aqueous solution containing 6.7% MeCN, which was present to solubilize the stock solution (1 mM) of benzyloxyacetaldehyde. After 2 h at room temperature, a 100 μL aliquot was analyzed by HPLC, employing a gradient of 10 to 100% acetonitrile in water over 18 min.
As described above, buffered solutions containing 50 μM amine and aldehyde were incubated at room temperature for 2 h prior to analysis by HPLC.

CNN(C)Cc1cc2ccccc2n1CCC(=O)O [Compound 4, Piperidinium 3-(2-((1,2-dimethylhydrazinyl)methyl)-1H-indol-1-yl)propanoate]
pKa [1]: ~6.56 | % conversion to product [2]: higher % conversion to product than the other amine nucleophiles

From patent US11426465B2, “Hydrazinyl-indole compounds and methods for producing a conjugate” (Redwood Bioscience, Inc., priority 2012, dated 2022)
